Consider eleven molecules from US20050208528A1, “Enhancement of the stability of oligonucleotides comprising phosphorothioate linkages by addition of water-soluble antioxidants” (ISIS Pharmaceuticals, Inc., priority 2001, published 2005).

The test system of series [1] is ISIS 2302. In words: Desulfurization in bi-phasic cream formulation with water-soluble and oil-soluble antioxidants, 40° C. for 6 days. In kind it is physicochemical. Conditions: for Full PS content (%): cream, 0.03% ISIS 2302, 40° C. 6 days, no additive 84.7. The procedure:
The cream was heated at 40° C. for 6 days and the oligonucleotide was isolated by ethanol precipitation and analyzed for full PS content by SAX chromatography.

The subject of series [2] is ICAM-1. Conditions: C8161 human melanoma cells; cited from earlier work.
Series [3] deals with ISIS 2302. Put plainly: Long-term protection of creams by antioxidants, 40° C. for 1 month. The class given is physicochemical. More on the design: full PS-content: unit: %. Conditions: for full PS-content: cream, 0.03% ISIS 2302, 40° C. 1 month, LC/MS or SAX, no antioxidants 45.1, no excipients 91.3; for Protection against desulfurization (in words): bi-phasic cream formulation. The protocol: (§1) A cream formulation was prepared containing 5.0 g BRIJ 58 (polyoxyethylene[20]cetyl ether), 0.03% ISIS 2302 and different concentrations of phenolic antioxidants.

In series [4] the test system is phosphorothioate oligonucleotide (ISIS-2302). In words: Desulfurization of phosphorothioate oligonucleotide in mono-phasic system with oil-soluble antioxidants (SAX chromatography). The class given is physicochemical. Conditions: for Full PS content (area-% SAX): 0.5 g PEG-40-monostearate, 1.5 ml phosphate buffer pH 7.0, 1.5 mg ISIS-2302, 65° C. 20 hours, no antioxidants 51.0. The procedure: Polyethyleneglycol-40-monostearate (0.5 g), a water-soluble excipient which forms peroxides in the absence of antioxidants, was heated at 65° C. for 20 hours with 1.5 ml phosphate buffer, pH 7.0 and 1.5 mg phosphorothioate oligonucleotide (ISIS-2302) in the absence or presence of various oil-soluble antioxidants. Oligonucleotides were isolated by ethanol precipitation and phosphorothioate content was determined by strong anion exchange (SAX) chromatography.

The subject of series [5] is ISIS 2302. Put plainly: Desulfurization in bi-phasic cream formulation with oil-soluble antioxidants, 40° C. for 2 days. In kind it is physicochemical. As to conditions: for Full PS content (%): 0.03% ISIS 2302, 0 mg gives 83.9; for Full PS content (%) / Protection of phosphorothioate oligonucleotides against desulfurization (in words): 40° C. 2 days; for Protection of phosphorothioate oligonucleotides against desulfurization (in words): biphasic cream. The protocol: as §1

The subject of series [6] is ICAM-1. Conditions: cited from earlier work.
The conditions of series [7]: Crohn's disease, rheumatoid arthritis, psoriasis, ulcerative colitis, kidney transplant rejection models; cited from earlier work.
The subject of series [8] is C8161 cells. Conditions: experimental metastasis assay, cited from earlier work.
In series [9] the test system is HLA-A and HLA-B. As to conditions: versus HLA-A and HLA-B; cited from earlier work.
For series [10] the following is noted: cited from earlier work.
Where [11] appears, read: 5 mg antioxidant in 100 g cream.
[12] abbreviates: 10 mg antioxidant in 100 g cream.
Setting [13] is: 25 mg antioxidant in 100 g cream.
[14] abbreviates: 50 mg antioxidant in 100 g cream.
Setting [15] is: 75 mg antioxidant in 100 g cream.
[16] abbreviates: 100 mg antioxidant in 100 g cream.
[17] abbreviates: cream with 0.03% ISIS 2302, before heating.

Where a name gives a salt, the structure may show the parent alone. Read-outs that look alike come from different tables or passages of the source. In the oligonucleotide strings, read from the 5' end, every base follows the letter of its sugar. An asterisk marks phosphorothioate; unmarked linkages are phosphodiester. Other units and linkages are bracketed, terminal groups are in braces. A string of capitals states the bases alone. d = 2'-deoxy (DNA)

Regarding Vitamin E-TPGS, the “Full PS content (%)” value in [1] (additive 7.5 mg) is reported as 84.8%.
Turning to “ISIS 1939: 2′-deoxyoligonucleotide, phosphorothioate backbone, 5′-CCC-CCA-CCA-CTT-CCC-CTC-TC-3′ (SEQ ID NO:2), targeted to 3′-UTR of human ICAM-1 gene (antisense dC*dC*dC*dC*dC*dA*dC*dC*dA*dC*dT*dT*dC*dC*dC*dC*dT*dC*dT*dC)”, in series [2], the “ICAM-1 expression (mRNA levels, northern blot)” value was “markedly reduced ICAM-1 expression”.
Consider `O=S(=O)([O-])c1ccc2[nH]c(S)nc2c1.[Na+]` [2-MBSA], for which the “Full PS content (%)” value in [1] (additive 4.8 mg) amounted to 95.5%. In addition, the “full PS-content” value is listed as 78.7 in series [3] (additive 0.01%), 95.2 in series [3] (additive 0.05%), 96.1 in series [3] (additive 0.2%) and 95.7 in series [3] (additive 0.8%). In addition, in [3], the “Protection against desulfurization (in words)” value is reported as “inhibited desulfurization”.
Regarding `O=C(O)CCCCC1CCSS1` (stereo not drawn) [α-lipoic acid], the “full PS-content” value in series [3] (additive 0.02%) turned out to be 80.2; in series [3] (additive 0.1%) it was 84.3; in series [3] (additive 0.45%), 84.7; in series [3] (additive 1.6%) it was 87.6. For the same molecule, the “Protection against desulfurization (in words)” value in series [3] is given as “inhibited desulfurization”.
Turning to `N[C@@H](CS)C(=O)O` [L-cysteine], the “Full PS content (%)” value was determined as 89.6% in [1] (additive 0.05 mg); 91.8% in series [1] (additive 0.2 mg); 93.6% in [1] (additive 0.4 mg); 93.7% in series [1] (additive 1.0 mg); 93.0% in [1] (additive 6.1 mg); 94.5% in [1] (additive 52.2 mg). Also, the “full PS-content” value in series [3] (additive 0.01%) is reported as 28.4; in series [3] (additive 0.05%), 30.8; in series [3] (additive 0.2%) it was 67.3; in series [3] (additive 0.8%), 81.9. For the same molecule, the “Protection against desulfurization (in words)” value in [3] was “inhibited desulfurization”.
Turning to `N[C@@H](CCC(=O)N[C@@H](CS)C(=O)NCC(=O)O)C(=O)O` [Glutathione], the “full PS-content” value is listed as 9.6 in series [3] (additive 0.01%), 49.4 in series [3] (additive 0.05%), 50.9 in series [3] (additive 0.2%) and 80.1 in series [3] (additive 0.8%). The “Protection against desulfurization (in words)” value in series [3] was “inhibited desulfurization”.
Turning to Vitamin E, in [4] (15 mg additive), the “Full PS content (area-% SAX)” value worked out at 89.7 area-% SAX. In addition, the “Protection of phosphorothioate oligonucleotide against desulfurization (in words)” value in series [4] (mono-phasic system) is recorded as “inhibit desulfurization”. The “Full PS content (%)” value is 83.7% in series [1] (additive 7.4 mg); 84.0% in series [5] (setting [11]); 81.9% in series [5] (setting [12]); 80.6% in [5] (setting [13]); 78.6% in [5] (setting [14]); 78.7% in series [5] (setting [15]). Moreover, in series [5] (setting [16]), the “Full PS content (%)” value is reported as 76.3%. Further, the “Protection from desulfurization (in words)” value in series [1] (bi-phasic cream formulation) is “ineffective”. The “Protection of phosphorothioate oligonucleotides against desulfurization (in words)” value in series [5] was “do not provide protection”.
With `O=S(=O)(O)CCS` [2-MESA, Na salt, 2-mercaptoethanesulfonic acid], the “full PS-content” value in [3] (additive 0.01%) is 61.2; in series [3] (additive 0.05%), 71.6; in series [3] (additive 0.2%) it was 72.5; in series [3] (additive 0.8%) it was 86.7.
On to `Cc1cc(C(C)(C)C)c(O)c(C(C)(C)C)c1` [BHT, butylated hydroxytoluene], for which the “Full PS content (%)” value stood at 77.3% in series [1] (additive 5.2 mg); 85.8% in series [5] (setting [11]); 82.1% in series [5] (setting [12]); 80.1% in series [5] (setting [13]); 85.4% in series [5] (setting [14]); 84.4% in series [5] (setting [15]). In addition, the “Full PS content (%)” value in [5] (setting [16]) was determined as 85.2%. Moreover, the “Protection of phosphorothioate oligonucleotides against desulfurization (in words)” value in [5] was “do not provide protection”.
For “ISIS 2302: 2′-deoxyoligonucleotide, phosphorothioate backbone, 5′-GCC-CAA-GCT-GGC-ATC-CGT-CA-3′ (SEQ ID NO:1), targeted to 3′-UTR of human ICAM-1 gene (antisense GCCCAAGCTGGCATCCGTCA; DNA, all phosphorothioate, methylation of C not given here)”, the ICAM-1 expression entry in series [6] (human epidermal carcinoma cells (A431)), in [6] (human keratinocytes), in series [6] (human lung carcinoma cells (A549)) and in series [6] (human umbilical vein cells) was “inhibit ICAM-1 expression” in each case. Moreover, in series [7], the “Anti-inflammatory effects in animal testing” value is recorded as “strong anti-inflammatory effects”. For the same molecule, the “Enhanced metastatic ability of C8161 cells resulting from TNF-α treatment” value in series [8] (TNF-α treated cells) is given as “eliminated the enhanced metastatic ability”. In addition, in series [8], the “Metastatic potential of C8161 cells” value is recorded as “decreased the metastatic potential”. In [1] (setting [17]), the “PS content of the cream prior to heating” value is listed as “about 95%”. Further, the “Specificity for target ICAM-1 over other potential nucleic acid targets” value in series [9] is reported as “demonstrated specificity for its target ICAM-1”. Besides, in series [2], the “ICAM-1 expression (mRNA levels, northern blot)” value was “markedly reduced ICAM-1 expression”. In addition, the “Activity against Crohn's disease” value in [10] (humans) is “activity against Crohn's disease”. In addition, in [10] (in vivo), the Safety in humans entry was “good safety”. In series [10] (treated human subjects, five months post-treatment weaned from steroids and in remission), the Steroid-sparing effect result is recorded as “statistically significant steroid-sparing effect”. Further, the “phosphorothioate content of the cream prior to heating” value in series [5] (setting [17]) is listed as 95%.
For the molecule `Cc1cccc(C(C)(C)C)c1O` [2-t-butyl-6-methylphenol], the “Full PS content (area-% SAX)” value in [4] (5 mg additive) is 93.4 area-% SAX. Further, the “Full PS content (%)” value in [1] (additive 11.0 mg) came to 79.0%.
